According to patent US20040132739A1, “Combination of a gelatinase inhibitor and an anti-tumor agent, and uses thereof” (priority 2001, published 2004):

Columns and labels:
HOC-22 ovarian carcinoma = experiment: human orthotopic ovarian carcinoma mouse xenograft model HOC-22, survival; format: in vivo; details: versus vehicle/control mice (median survival 30 days); RO 28-2653 45 mg/kg oral daily six times a week, day 7 to 21; Cisplatin 4 doses of 3 mg/kg i.v. every 4 days from day 7
Description: DDP=Cisplatin. […] Statistics was calculated using the log rank test. […] Cisplatin treatment consisted of 4 doses of 3 mg/kg i.v. per mouse once every 4 days, starting on day 7.

[1] = system: MatLyLu prostate carcinoma; experiment: rat syngeneic orthotopic prostate carcinoma model MatLyLu, primary tumor size; format: in vivo; details: as compared to vehicle-treated animals; RO 28-2653 100 mg/kg oral daily, Etoposide 25 mg/m^2 i.p. once daily, day 6 to day 17
Description: Etoposide was given intraperitoneally once daily, from day 6 to day 17, at a dose of 25 mg/m^2.

[2] = system: PancTul pancreas carcinoma; details: for inhibition of primary tumor growth: RO 28-2653 45 mg/kg oral daily day 7 to 30; for inhibition of primary tumor growth / Volume Primary tumor (Vm) / average number of metastases per animal: Gemcitabine 2.2 mg/kg i.p. every second day, day 7 to 30; for Volume Primary tumor (Vm) / average number of metastases per animal: RO 28-2653 45 mg/kg oral daily; for Metastasis Diaphragm / Metastasis Kidneys/Adrenal gland (capsule) / Metastasis Ligament of the uterus/testis (serosa), seminal vesicles / Metastasis Liver hilus / Metastasis Liver, in parenchyme / Metastasis Liver, on serosa / Metastasis Lung/Mediastinum / Metastasis Lymph nodes in mesentery / Metastasis Mesentery 3-20 metastasis(1-18 mm^3) / Metastasis Mesentery < 3 metastasis(^2 mm^3) / Metastasis Pelvis / Metastasis Site of surgical incision Large 80-280 mm^3 / Metastasis Site of surgical incision Medium < 50 mm^3 / Metastasis Site of surgical incision Small < 10 mm^3 / Metastasis Spleen (serosa), gastrosplenic ligament: animals with metastasis / animals in group; for Necrosis Primary tumor: animals with necrosis / animals in group; for Tumor take rate Primary tumor: animals with tumor / animals in group; for Body weight (m): mean change (spread)
Description: The activity of RO 28-2653 in combination with Gemcitabine was evaluated in the human orthotopic pancreas carcinoma mouse xenograft model PancTul with primary tumor size and number and size of metastases as endpoints.
Effect of the combination of RO 28-2653 and Gemcitabine on primary tumor volume in the orthotopic PancTul pancreas cancer xenograft model. Mice were treated with RO 28-2653 with daily oral doses of 45 mg/kg from day 7 until day 30. Gemcitabine treatment consisted of one intraperitoneal dose of 2.2 mg/kg every second day from day 7 to day 30.
Effect of the combination of RO 28-2653 and Gemcitabine on metastatic spread in the orthotopic PancTul pancreas cancer xenograft model. Mice were treated with RO 28-2653 with daily oral doses of 45 mg/kg from day 7 until day 30. Gemcitabine treatment consisted of one intraperitoneal dose of 2.2 mg/kg every second day from day 7 to day 30.

[3] = toxicological tests over a wide range of doses; format: in vivo; details: side effects like those of broad-spectrum MMP inhibitors
Source text: Thus, no dose-limiting toxicities were expected with RO 28-2653, and accordingly no additional benefit from co-treatment with cytostatic/cytotoxic drugs was expected. However, to explore also the distant possibility of an additional benefit from combination treatment, such studies were initiated and conducted in various animal models. The models and cytostatic/cytotoxic drugs were chosen to reflect as broad a spectrum of oncological indications and clinically active treatment principles as possible.

Row | Structure (SMILES) | increase in lifespan (HOC-22 ovarian carcinoma) | inhibition of primary tumor growth [1] | inhibition of primary tumor growth [2] | Volume Primary tumor (Vm) [2] | average number of metastases per animal [2] | Metastasis Diaphragm [2] | Metastasis Kidneys/Adrenal gland (capsule) [2] | Metastasis Ligament of the uterus/testis (serosa), seminal vesicles [2] | Metastasis Liver hilus [2] | Metastasis Liver, in parenchyme [2] | Metastasis Liver, on serosa [2] | Metastasis Lung/Mediastinum [2] | Metastasis Lymph nodes in mesentery [2] | Metastasis Mesentery 3-20 metastasis(1-18 mm^3) [2] | Metastasis Mesentery < 3 metastasis(^2 mm^3) [2] | Metastasis Pelvis [2] | Metastasis Site of surgical incision Large 80-280 mm^3 [2] | Metastasis Site of surgical incision Medium < 50 mm^3 [2] | Metastasis Site of surgical incision Small < 10 mm^3 [2] | Metastasis Spleen (serosa), gastrosplenic ligament [2] | other results
1 | N.N.[Cl][Pt][Cl] [Cisplatin, reference compound] | 95% |  |  |  |  |  |  |  |  |  |  |  |  |  |  |  |  |  |  |  | 
2 | COc1cc([C@@H]2c3cc4c(cc3[C@@H](O[C@@H]3O[C@@H]5CO[C@@H](C)O[C@H]5[C@H](O)[C@H]3O)[C@H]3COC(=O)[C@H]23)OCO4)cc(OC)c1O [Etoposide, reference compound] |  | 35% |  |  |  |  |  |  |  |  |  |  |  |  |  |  |  |  |  |  | 
3 | Nc1ccn([C@@H]2O[C@H](CO)[C@@H](O)C2(F)F)c(=O)n1 [Gemcitabine, reference compound] |  |  | 85% | Vm = 51 (±14) mm^3 | 0.4 metastases per animal | 0/13 | 0/13 | 0/13 | 0/13 | 1/13 | 1/13 | 0/13 | 0/13 | 0/13 | 0/13 | 0/13 | 0/13 | 1/13 | 2/13 | 0/13 | Necrosis Primary tumor [2]: 4/13; Tumor take rate Primary tumor [2]: 13/13; Body weight (m) [2]: m = −2 (±5)%
4 | O=C1NC(=O)C(c2ccc(-c3ccccc3)cc2)(N2CCN(c3ccc([N+](=O)[O-])cc3)CC2)C(=O)N1 [RO 28-2653, 5-(4-biphenyl)-5-[N-(4-nitrophenyl)piperazinyl] barbituric acid] | 63% | 86% | 66% | Vm = 112 (±46) mm^3 | 2.5 metastases per animal | 3/13 | 1/13 | 0/13 | 4/13 | 3/13 | 2/13 | 2/13 | 2/13 | 5/13 | 0/13 | 0/13 | 6/13 | 3/13 | 2/13 | 0/13 | Necrosis Primary tumor [2]: 1/13; Tumor take rate Primary tumor [2]: 13/13; Body weight (m) [2]: m = −5 (±4)%; side effects [3]: no side effects
